Results: PubChem BioAssay AID2060488 (Molecular Pharmacology Branch, DTP, NCI, 2025)

Test system: 966289-007-R4-J1-PDC complex spheroid viability
Assay: Anticancer human tumor 966289-007-R4-J1-PDC patient-derived pancreatic adenocarcinoma cell line growth inhibition [GQUAD]
Conditions: for IC50: curve of first compound; for viability, T/C: stronger effect = lower value; active = viability on the fitted dose curve at most 10% of control; inactive = the rest
Summary of the method: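 Viability of tumor cells grown as complex spheroids with endothelial and stromal cells, exposed to drug combinations. Top concentration at or near clinical Cmax (else 10 microM), diluted in half-log increments.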

[1] = second compound 0.0316 µM, first compound 0.0316 µM
[2] = second compound 0.0316 µM, first compound 0.1 µM
[3] = second compound 0.0316 µM, first compound 0.316 µM
[4] = second compound 0.0316 µM, first compound 1 µM
[5] = second compound 0.0316 µM, first compound 3.16 µM
[6] = second compound 0.0316 µM, first compound 10 µM
[7] = second compound 0.1 µM, first compound 0.0316 µM
[8] = second compound 0.1 µM, first compound 0.1 µM
[9] = second compound 0.1 µM, first compound 0.316 µM
[10] = second compound 0.1 µM, first compound 1 µM
[11] = second compound 0.1 µM, first compound 3.16 µM
[12] = second compound 0.1 µM, first compound 10 µM
[13] = second compound 0.316 µM, first compound 0.0316 µM
[14] = second compound 0.316 µM, first compound 0.1 µM
[15] = second compound 0.316 µM, first compound 0.316 µM
[16] = second compound 0.316 µM, first compound 1 µM
[17] = second compound 0.316 µM, first compound 3.16 µM
[18] = second compound 0.316 µM, first compound 10 µM
[19] = second compound 1 µM, first compound 0.0316 µM
[20] = second compound 1 µM, first compound 0.1 µM
[21] = second compound 1 µM, first compound 0.316 µM
[22] = second compound 1 µM, first compound 1 µM
[23] = second compound 1 µM, first compound 3.16 µM
[24] = second compound 1 µM, first compound 10 µM
[25] = second compound 3.16 µM, first compound 0.0316 µM
[26] = second compound 3.16 µM, first compound 0.1 µM
[27] = second compound 3.16 µM, first compound 0.316 µM
[28] = second compound 3.16 µM, first compound 1 µM
[29] = second compound 3.16 µM, first compound 3.16 µM
[30] = second compound 3.16 µM, first compound 10 µM
[31] = second compound 10 µM, first compound 0.0316 µM
[32] = second compound 10 µM, first compound 0.1 µM
[33] = second compound 10 µM, first compound 0.316 µM
[34] = second compound 10 µM, first compound 1 µM
[35] = second compound 10 µM, first compound 3.16 µM
[36] = second compound 10 µM, first compound 10 µM
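Also: spheroids exposed to the agents for seven days before readout.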
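For viability, T/C in this document: percent viability relative to DMSO vehicle control wells taken as 100%.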

O=c1[nH]cc(F)c(=O)[nH]1 + CN(C)c1ccc(Nc2c3ccc(NC(=O)CCN4CCCC4)cc3nc3cc(NC(=O)CCN4CCCC4)ccc23)cc1
inactive: viability, T/C [1] 104% | viability, T/C [2] 103% | viability, T/C [3] 18.4% | viability, T/C [7] 103% | viability, T/C [8] 113% | viability, T/C [9] 17.7% | viability, T/C [13] 105% | viability, T/C [14] 109% | viability, T/C [15] 17.5% | viability, T/C [19] 103% | viability, T/C [20] 107% | viability, T/C [21] 17.5% | viability, T/C [25] 101% | viability, T/C [26] 106% | viability, T/C [27] 22.2% | viability, T/C [31] 93.8% | viability, T/C [32] 103% | viability, T/C [33] 14.6%
205 nM: IC50 (second compound 0.0316 µM)
209 nM: IC50 (second compound 0.1 µM)
213 nM: IC50 (second compound 3.16 µM)
195 nM: IC50 (second compound 10 µM)
208 nM: IC50 (second compound 0.316 µM)
206 nM: IC50 (second compound 1 µM)
active: viability, T/C [4] 6.28% | viability, T/C [5] 5.63% | viability, T/C [6] 6.35% | viability, T/C [10] 7.05% | viability, T/C [11] 5.04% | viability, T/C [12] 6.55% | viability, T/C [16] 7.23% | viability, T/C [17] 5.77% | viability, T/C [18] 6.78% | viability, T/C [22] 6.91% | viability, T/C [23] 5.6% | viability, T/C [24] 5.8% | viability, T/C [28] 8.51% | viability, T/C [29] 5.41% | viability, T/C [30] 5.54% | viability, T/C [34] 4.55% | viability, T/C [35] 3.52% | viability, T/C [36] 3.2%

C#Cc1c(F)ccc2cc(O)cc(-c3ncc4c(N5CC6CCC(C5)N6)nc(OCC56CCCN5CC(F)C6)nc4c3F)c12 (stereo not drawn) + CN(C)c1ccc(Nc2c3ccc(NC(=O)CCN4CCCC4)cc3nc3cc(NC(=O)CCN4CCCC4)ccc23)cc1
inactive: viability, T/C [1] 103% | viability, T/C [2] 88.4% | viability, T/C [3] 98.5% | viability, T/C [4] 86.7% | viability, T/C [5] 95.9% | viability, T/C [6] 93.5% | viability, T/C [7] 96.8% | viability, T/C [8] 84.4% | viability, T/C [9] 94.5% | viability, T/C [10] 89% | viability, T/C [11] 90.7% | viability, T/C [12] 96% | viability, T/C [13] 98.2% | viability, T/C [14] 91.2% | viability, T/C [15] 105% | viability, T/C [16] 96.3% | viability, T/C [17] 95.2% | viability, T/C [18] 103% | viability, T/C [19] 87.9% | viability, T/C [20] 89.9% | viability, T/C [21] 98.8% | viability, T/C [22] 96.8% | viability, T/C [23] 95.5% | viability, T/C [24] 102% | viability, T/C [25] 88.5% | viability, T/C [26] 91.1% | viability, T/C [27] 96.8% | viability, T/C [28] 99.4% | viability, T/C [29] 104% | viability, T/C [30] 68.7% | viability, T/C [31] 104% | viability, T/C [32] 106% | viability, T/C [33] 103% | viability, T/C [34] 85% | viability, T/C [35] 16.1%
> 10000 nM: IC50 (second compound 0.0316 µM) | IC50 (second compound 0.1 µM) | IC50 (second compound 0.316 µM) | IC50 (second compound 1 µM) | IC50 (second compound 3.16 µM)
active: viability, T/C [36] 0.99%
1790 nM: IC50 (second compound 10 µM)

Cc1[nH]c2ccccc2c1CCNCc1ccc(/C=C/C(=O)NO)cc1 + CN(C)c1ccc(Nc2c3ccc(NC(=O)CCN4CCCC4)cc3nc3cc(NC(=O)CCN4CCCC4)ccc23)cc1
54.3 nM: IC50 (second compound 3.16 µM)
67.5 nM: IC50 (second compound 1 µM)
active: viability, T/C [3] 5.05% | viability, T/C [9] 4.54% | viability, T/C [15] 3.99% | viability, T/C [21] 3.89% | viability, T/C [27] 1.84% | viability, T/C (second compound 10 µM, first compound 0.0999 µM) 2.99% | viability, T/C [33] 0.49%
78 nM: IC50 (second compound 0.0316 µM)
68.4 nM: IC50 (second compound 0.1 µM)
75 nM: IC50 (second compound 0.316 µM)
inactive: viability, T/C (second compound 0.0316 µM, first compound 0.000999 µM) 106% | viability, T/C (second compound 0.0316 µM, first compound 0.00316 µM) 95.3% | viability, T/C (second compound 0.0316 µM, first compound 0.00999 µM) 109% | viability, T/C [1] 85.8% | viability, T/C (second compound 0.0316 µM, first compound 0.0999 µM) 40.2% | viability, T/C (second compound 0.1 µM, first compound 0.000999 µM) 106% | viability, T/C (second compound 0.1 µM, first compound 0.00316 µM) 102% | viability, T/C (second compound 0.1 µM, first compound 0.00999 µM) 109% | viability, T/C [7] 87.8% | viability, T/C (second compound 0.1 µM, first compound 0.0999 µM) 31.4% | viability, T/C (second compound 0.316 µM, first compound 0.000999 µM) 94.7% | viability, T/C (second compound 0.316 µM, first compound 0.00316 µM) 97.8% | viability, T/C (second compound 0.316 µM, first compound 0.00999 µM) 109% | viability, T/C [13] 101% | viability, T/C (second compound 0.316 µM, first compound 0.0999 µM) 33.1% | viability, T/C (second compound 1 µM, first compound 0.000999 µM) 98.9% | viability, T/C (second compound 1 µM, first compound 0.00316 µM) 100% | viability, T/C (second compound 1 µM, first compound 0.00999 µM) 108% | viability, T/C [19] 98.2% | viability, T/C (second compound 1 µM, first compound 0.0999 µM) 25% | viability, T/C (second compound 3.16 µM, first compound 0.000999 µM) 98.3% | viability, T/C (second compound 3.16 µM, first compound 0.00316 µM) 104% | viability, T/C (second compound 3.16 µM, first compound 0.00999 µM) 104% | viability, T/C [25] 81% | viability, T/C (second compound 3.16 µM, first compound 0.0999 µM) 14.8% | viability, T/C (second compound 10 µM, first compound 0.000999 µM) 100% | viability, T/C (second compound 10 µM, first compound 0.00316 µM) 104% | viability, T/C (second compound 10 µM, first compound 0.00999 µM) 108% | viability, T/C [31] 74.8%
46.9 nM: IC50 (second compound 10 µM)

CC1COCCN1c1cc(-c2ccnn2C)c2ccnc(-c3ccn[nH]3)c2n1 (stereo not drawn) + CN(C)c1ccc(Nc2c3ccc(NC(=O)CCN4CCCC4)cc3nc3cc(NC(=O)CCN4CCCC4)ccc23)cc1
213 nM: IC50 (second compound 0.0316 µM)
143 nM: IC50 (second compound 10 µM)
240 nM: IC50 (second compound 1 µM)
228 nM: IC50 (second compound 0.1 µM)
inactive: viability, T/C [1] 113% | viability, T/C [2] 88.9% | viability, T/C [3] 29.1% | viability, T/C [7] 113% | viability, T/C [8] 97.5% | viability, T/C [9] 30.8% | viability, T/C [13] 108% | viability, T/C [14] 89.6% | viability, T/C [15] 29.3% | viability, T/C [19] 107% | viability, T/C [20] 96.2% | viability, T/C [21] 35.1% | viability, T/C [25] 110% | viability, T/C [26] 94.3% | viability, T/C [27] 28.2% | viability, T/C [31] 103% | viability, T/C [32] 64.3% | viability, T/C [33] 18.2%
active: viability, T/C [4] 11.2% | viability, T/C [5] 6.12% | viability, T/C [6] 3.97% | viability, T/C [10] 10.2% | viability, T/C [11] 5.52% | viability, T/C [12] 4.49% | viability, T/C [16] 11% | viability, T/C [17] 5.87% | viability, T/C [18] 4.36% | viability, T/C [22] 10.6% | viability, T/C [23] 4.68% | viability, T/C [24] 4.37% | viability, T/C [28] 10.7% | viability, T/C [29] 6.99% | viability, T/C [30] 5.79% | viability, T/C [34] 9.04% | viability, T/C [35] 5.74% | viability, T/C [36] 4.94%
217 nM: IC50 (second compound 3.16 µM)
214 nM: IC50 (second compound 0.316 µM)
